PMC4626104, “Inhibition on Proteasome β1 Subunit Might Contribute to the Anti-Cancer Effects of Fangchinoline in Human Prostate Cancer Cells” (PLoS ONE, 2015)

Assays:
[1] = tested on: PC-3 cells with over-expression of proteasome β1 subunit; experiment: MTT assay in PC-3 cells over-expressing proteasome β1 subunit (PSMB6 plasmid); type: cell-based, human; conditions: 24 h, 48 h or 72 h treatment
Procedure: The inhibitive effects of fangchinoline on proliferation of PC-3 cells or LnCap cells was observed by checking cell viability of cells using MTT assay as described before. Briefly, cells were seeded in 96-well plates at a density of 5×10^4 cells/mL for PC-3 cell and 4×10^4 cells/mL for LnCap cells. After overnight culture, the media were changed into fresh media containing various concentrations of fangchinoline or 0.1% DMSO (solvent control) for 24, 48 h or 72 h. Cell viability was evaluated by measuring the mitochondrial-dependent conversion of the yellow tetrazolium salt MTT to purple formazan crystals by metabolic active cells. The optical density (proportional to the number of live cells) was assessed with a Microplate Reader Bio-Rad 550 at 570 nm. IC50 value (half-maximal inhibitory concentration) was calculated by the Logit method.
Cells with over-expression of proteasome β1 subunit were obtained by transfection with pcDNA3.1 plasmid encoding full-length human PSMB6 cDNA as described before. For plasmid transfection, 5 × 10^5 cells were seeded into each well of a six-well plate until the cells reached approximately 80% confluence after cultured for 24 h. […]

[2] = tested on: PC-3 tumor xenografts; experiment: PC-3 tumor xenograft experiments (tumor volume, TUNEL); type: in vivo, nude mice
Procedure: Male nude immunodeficient mice Balb/c-nu-nu, aged 4 weeks, were purchased from Shanghai Experimental Animal Center. All procedures involving animals were approved by the Institutional Animal Care and Use Committee of Shanghai Institute of Materia Medica, Chinese Academy of Sciences. On day 0, PC-3 cells (8×10^6 cells) suspended in 0.2 mL of serum-free RPMI 1640 were inoculated s.c. in the right flank of each mouse (six mice per group). 14 days after inoculation, mice were randomly divided into 3 groups and started injection with either vehicle control or fangchinoline at 25 mg/kg (ip., QD) or 50 mg/kg (ip., QD). Tumor sizes were measured every 4 days using calipers and their volumes were calculated using a standard formula: width^2×length/2. The relative tumor volume (RTV) was defined as the ratio of the tumor volume at a indicated time and the tumor volume at the start of drug treatment. Body weight was measured daily. On day 30 after inoculation, mice were sacrificed by CO2 inhalation and tumor xenografts were dissected. To visualize apoptosis in tumor xenografts, TUNEL labeling was conducted to detect apoptotic nuclei using In Situ Death Detection Kit (Roche Molecular Biochemicals). Briefly, tumor xenografts were fixed with 10% formalin solution at room temperature for 24 h and then embedded by paraffin. Specimens were heated for 1h by Water Bath-Slide Drier (LEICA H1 1220, German), incubated with dimethylbenzene for two times (8 min each) and then incubated with 100%, 95%, 90% and 85% ethanol for two times (3 min each). Specimens were then incubated with 0.1M Citrate buffer (pH 6.0) for microwave irradiation. After washing with PBS for two times (3 min each), slices were incubated with reaction buffer (from the In Situ Death Detection Kit) in a humid atmosphere at 37°C for 1 h. Slices were then washed with PBS three times (3 min each) to remove unincorporated fluorescein–deoxyuridine triphosphate. Nuclei were counterstained with 4,6-diamidino-2-phenylindole (DAPI) 1 μg/mL for 3 min and then washed with PBS for three times (3 min each). Images were captured using a 20X objective (Olympus BX51, Japan) on an epifluorescence microscope. Furthermore, the proteasome activities of tumor xenografts were assayed. Briefly, tumor xenografts were homogenerized in proteasome activity assay buffer using the FastPrep System (MP FastPrep-24, U.S.A), then centrifugation at 4°C for 30 min. The supernatants were then used for assay of proteasome activities using method as described above for analysis of cellular proteasome activities.

[3] = tested on: PC-3 cells; experiment: Flow cytometric analysis of cell cycle in PC-3 cells; type: cell-based, human; conditions: 24 h
Procedure: The induction of cell cycle arrest and apoptosis by fangchinoline in PC-3 cells was observed by using flow cytometric analysis as described in our previous reports. Briefly, for flow cytometry analysis of cell cycle, cells were collected after treatment, washed with PBS and then fixed with 70% ethanol at 4°C for overnight. After PBS washes, cells were re-suspended in staining buffer (10 mg/mL RNase A and […] propidium iodide in cold PBS) for 30 min in dark at room temperature and then analyzed using FACSCalibur Flow Cytometer. For flow cytometric analysis of apoptosis, Alexa Fluor 488 Annexin V & PI /Dead cell Apoptosis Kit (Invitrogen) was used. Cells were collected after treatment, washed with PBS and then resuspended in binding buffer and then incubated with Annexin V-FITC and propidium iodide for 15 min in dark at room temperature. Then, flow cytometric analysis was conducted and data analysis was performed with CellQuest software.

[4] = 25mg/kg ip. QD, day 14 after inoculation (start of treatment)
[5] = 25mg/kg ip. QD, day 17 after inoculation
[6] = 25mg/kg ip. QD, day 21 after inoculation
[7] = 25mg/kg ip. QD, day 24 after inoculation
[8] = 25mg/kg ip. QD, day 27 after inoculation
[9] = 25mg/kg ip. QD, day 30 after inoculation
[10] = 50mg/kg ip. QD, day 14 after inoculation (start of treatment)
[11] = 50mg/kg ip. QD, day 17 after inoculation
[12] = 50mg/kg ip. QD, day 21 after inoculation
[13] = 50mg/kg ip. QD, day 24 after inoculation
[14] = 50mg/kg ip. QD, day 27 after inoculation
[15] = 50mg/kg ip. QD, day 30 after inoculation

## COc1ccc2cc1Oc1ccc(cc1)C[C@H]1c3cc(c(OC)cc3CCN1C)Oc1c(O)c(OC)cc3c1[C@H](C2)N(C)CC3 [fangchinoline]
[1]
  Sensitivity of cells with over-expression of proteasome β1 subunit to cytotoxicity vs wild type and negative control: more sensitive
[2]; [4]
  Tumor volume (Maximum): 519.59 mm^3
  Tumor volume (Mean ± SEM): 370.0±42.37 mm^3
[2]; [5]
  Tumor volume (Maximum): 512.11 mm^3
  Tumor volume (Mean ± SEM): 356.5±51.63 mm^3
[2]; [6]
  Tumor volume (Maximum): 812.68 mm^3
  Tumor volume (Mean ± SEM): 577.7±53.05 mm^3
[2]; [7]
  Tumor volume (Maximum): 1147.52 mm^3
  Tumor volume (Mean ± SEM): 955.0±78.87 mm^3
[2]; [8]
  Tumor volume (Maximum): 1439.56 mm^3
  Tumor volume (Mean ± SEM): 1248±50.73 mm^3
[2]; [9]
  Tumor volume (Maximum): 1655.05 mm^3
  Tumor volume (Mean ± SEM): 1413±61.89 mm^3
[2]; [10]
  Tumor volume (Maximum): 356.43 mm^3
  Tumor volume (Mean ± SEM): 348.4±3.470 mm^3
[2]; [11]
  Tumor volume (Maximum): 402.14 mm^3
  Tumor volume (Mean ± SEM): 321.3±21.46 mm^3
[2]; [12]
  Tumor volume (Maximum): 462.36 mm^3
  Tumor volume (Mean ± SEM): 374.8±37.58 mm^3
[2]; [13]
  Tumor volume (Maximum): 812.28 mm^3
  Tumor volume (Mean ± SEM): 593.8±593.8 mm^3
[2]; [14]
  Tumor volume (Maximum): 1008.40 mm^3
  Tumor volume (Mean ± SEM): 857.0±41.00 mm^3
[2]; [15]
  Tumor volume (Maximum): 1263.09 mm^3
  Tumor volume (Mean ± SEM): 1120±66.28 mm^3
[2]; 25 and 50 mg/kg ip. QD
  Growth of PC-3 xenografts (relative tumor volume): dose-dependently inhibit
[2]; animals treated with fangchinoline
  Apoptosis in PC-3 xenografts (TUNEL labeling): apoptosis was induced
[3]; 5 μM
  Percentage (%) of cells in G0/G1 phase: 60.17±1.49%
  Percentage (%) of cells in G2/M phase: 11.21±2.45 %
  Percentage (%) of cells in S phase: 28.62±2.31%
[3]; 8 μM
  Percentage (%) of cells in G0/G1 phase: 64.25±1.57 %
  Percentage (%) of cells in G2/M phase: 11.99±2.23 %
  Percentage (%) of cells in S phase: 23.76±2.77%
[3]; 12 μM
  Percentage (%) of cells in G0/G1 phase: 63.03±0.73 %
  Percentage (%) of cells in G2/M phase: 11.59±1.99 %
  Percentage (%) of cells in S phase: 25.37±1.75 %
[3]; 18 μM
  Percentage (%) of cells in G0/G1 phase: 67.63±3.34 %
  Percentage (%) of cells in G2/M phase: 8.88±2.91%
  Percentage (%) of cells in S phase: 23.48±2.14 %
[3]; 27 μM
  Percentage (%) of cells in G0/G1 phase: 75.16±1.95 %
  Percentage (%) of cells in G2/M phase: 8.65±1.81%
  Percentage (%) of cells in S phase: 16.19±0.63 %
[3]; 40 μM
  Percentage (%) of cells in G0/G1 phase: 80.14±1.55 %
  Percentage (%) of cells in G2/M phase: 7.99±1.43%
  Percentage (%) of cells in S phase: 11.88±0.56 %
